Laboratory results as given in patent publication US9763979B2, “Cardioplegic preparation” (Universitat Bern, priority 2008, dated 2017).

Assay: Experimental and clinical tests of potassium bioavailability
Conditions: in presence of xylitol and/or citric acid
Description: As compared to previous cardioplegic solutions the preparation according to the invention has a higher potassium concentration. […] By increasing thus the initial content of potassium in the cardioplegic solution, the concentration necessary to achieve the cardioplegic effect is guaranteed.

In the case of `[Cl-].[K+]` [Potassium ions, Potassium chloride], the “bioavailability of Potassium ions” value is reported as “reduced bioavailability”.
